These are literature values, as cited in patent publication US5585244A, “Detection of retinoid X receptor subtype γ proteins” (Ligand Pharmaceuticals Incorporated, priority 1994, dated 1996).

The target in data set [1] is retinoid X receptors (RXRs).
Data set [2] deals with retinoic acid receptors (RARs). The following applies: 9cRA and tRA bind with equally high affinity.
The target in data set [3] is retinoid X receptors (RXRs). The following applies: versus tritiated 9cRA.

In the case of `CC1=C(/C=C/C(C)=C\C=C\C(C)=C\C(=O)O)C(C)(C)CCC1` [9cRA, 9-cis retinoic acid], the dissociation constant Kd is 1 to 2 nM in data set [1] and 0.2 to 0.8 nM in data set [2].

On to `CC1=C(/C=C/C(C)=C/C=C/C(C)=C/C(=O)O)C(C)(C)CCC1` [tRA, all-trans retinoic acid], for which the IC50 in data set [3] is more than 50000 nM. Further, the Kd in data set [2] is 0.2 to 0.8 nM.
